The source of these data is patent US20230416261A1, “ETHANEDIAMINE-HETEROCYCLE DERIVATIVES AS INHIBITORS OF PROTEIN ARGININE METHYLTRANSFERASES” (Board of Regents, The University of Texas System, priority 2021, published 2023).

For assay [1], the system named is PANC-1 (pancreatic ductal adenocarcinoma) xenograft. Kind of assay: Anti-tumor effects in PANC-1 mouse xenograft model. It is filed as in vivo. Conditions: BID, 28 days, C.B-17 SCID mice. On the procedure:
The effect of the compounds of Examples 1 and 2 on tumor growth was assessed in a PANC-1 (pancreatic ductal adenocarcinoma) mouse xenograft model. Female C.B -Igh-I^b/IcrTac-Prkdc^scid (C.B-17 SCID) mice were injected subcutaneously in the right flank with a suspension of […] cells (5 million cells with 50% Matrigel (Corning #356231) in sterile Dulbecco's phosphate buffered saline (DPBS, Life Technologies #14190-144). After implantation, tumor volume (TV) was measured weekly and mice bearing tumors with volumes ˜200 mm^3 were randomized into treatment groups of 8 mice each. Mice were dosed by oral gavage, twice daily for 28 days with either vehicle or 1 and 2 at the doses reported in Table 6 and Table 7 respectively. The doses were scaled to the body weights (BW) of individual animals at a dosing volume of 5 mL/Kg. Throughout the duration of study tumor growth was assessed by caliper measurement and treatment response was determined by percent tumor growth inhibition (% TGI; calculated as TGI %=(Ci−Ti)/(Ci−C0)*100%; Ci and Ti are the mean tumor volumes of the vehicle and treatment groups on the measurement day, respectively; C0 is the mean tumor volume of the vehicle group on day 0 (i.e. the day before treatment started). Mouse body weight was measured bi-weekly and reported as percentage of BW change from day 0 (calculated as Body Weight Change %=(BWi−BW0)/BW0*100%; BWi and BW0 are body weight of an individual mouse on measurement day i and on day 0, respectively). Statistical significance was calculated by repeated-measures two-way ANOVA with multiple comparisons and Tukey correction using GraphPad Prism 8.0.

The subject of assay [2] is PATC53 cells. The experiment in a line: PATC53 Long Term Phenotypic Assay (14 days, crystal violet viability). It is filed as cell-based. The following applies: 336 h. Put shortly: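 Cells seeded at 250 per well, allowed 24 h to settle, then treated with 1:3 serial dilutions of compound for 14 days at 37 °C, 5% CO2. Viability measured by crystal violet staining, solubilised in 10% HOAc, absorbance 590 nm; IC50 from four-parameter logistic fit.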

Assay [3] concerns DOHH2 cells. The experiment in a line: DOHH2 Long Term Phenotypic Assay (7 days, Cell Titer-Glo viability). It is filed as cell-based. The following applies: Homo sapiens, DOHH-2, 168 h, Cell Titer-Glo 2.0. Put shortly:
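DOHH2 lymphoma cells (250 per well) in RPMI-1640 with 10% FBS were exposed to 1:3 serially diluted compounds for 7 days at 37 °C, 5% CO2. Viability was read by CellTiter-Glo 2.0 luminescence, and IC50 values came from four-parameter logistic fits.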

A word on the IC50: it is the concentration at which inhibition is half-maximal. For `CNCCN(C)Cc1nn2c(c1C1CCC(COC)(COC)CC1)CN(C(=O)C1CCC1)CC2` [Example 1, (3-(4,4-Bis(methoxymethyl)cyclohexyl)-2-((methyl(2-(methylamino)ethyl)amino)methyl)-6,7-dihydropyrazolo[1,5-a]pyrazin-5(4H)-yl)(cyclobutyl)methanone], the “Tumor Growth Inhibition % (TGI %; day 28)” value was found to be 49% in assay [1] (150 mg/Kg PO) and 68% in assay [1] (225 mg/Kg PO). For the same compound, the IC50 came to 45 nM in assay [2] and 66 nM in assay [3].

On to `COCC1(COC)CCC(c2c(CN(C)CCN)nn3c2CN(C(=O)C(C)(C)C)CC3)CC1` [Example 2, 1-(2-(((2-aminoethyl)(methyl)amino)methyl)-3-(4,4-bis(methoxymethyl)cyclohexyl)-6,7-dihydropyrazolo[1,5-a]pyrazin-5(4H)-yl)-2,2-dimethylpropan-1-one], for which the “Tumor Growth Inhibition % (TGI %; day 28)” value worked out at 48% in assay [1] (150 mg/Kg PO) and 70% in assay [1] (225 mg/Kg PO). In addition, the concentration for half-maximal inhibition (IC50) came out at 152 nM in assay [2] and 158 nM in assay [3].
